Test results from US20190151312A1, “HEPARAN SULFATE BIOSYNTHESIS INHIBITORS FOR THE TREATMENT OF DISEASES” (BioMarin Pharmaceutical Inc., priority 2014, published 2019).
pIC50: −log10 of the molar value. Like-named read-outs stand apart in the source and are kept apart here.

System: GM01896 cells (MPS II dermal fibroblasts)
Experiment: Assay 1: MPS cellular assay, MPS II (heparan sulfate disaccharide biomarkers by LC-MS)
Type: cell-based, human
Conditions: Assay 1 for MPS II, heparan sulfate disaccharide biomarkers (I2a4, I2a6, I2S0 and/or I2S6), read-out: IC50 Range
Outline: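 Heparan sulfate disaccharide biomarkers quantified by LC-MS after heparinase I/II/III digestion and isotopic aniline labelling, using GM01896 MPS II fibroblasts exposed to compound (at or below 30 μM, 4-21 days). Values given as IC50 by curve fitting; cell viability checked with alamar blue or ATP.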

Compound	pIC50 (Homo sapiens, Fibroblast)	pIC50
Cn1ncc2ccc(-c3cc(Nc4ccc(Cl)cc4)nc(N4CCOCC4)n3)cc21 [(4-chlorophenyl)[6-(1-methyl(1H-indazol-6-yl))-2-morpholin-4-ylpyrimidin-4-yl]amine]	6.00 to 6.30	
Cn1nc(NCCN2CCOCC2)c2ccc(-c3cc(Nc4ccc(Cl)cc4)nc(N4CCOCC4)n3)cc21 [(4-chlorophenyl)(6-{1-methyl-3-[(2-morpholin-4-ylethyl)amino](1H-indazol-6-yl)}-2-morpholin-4-ylpyrimidin-4-yl)amine]	6.00 to 6.30	
Cc1nn(C)c2cc(-c3cc(Nc4ccc(-c5nccn5C)cc4)nc(N4CCOCC4)n3)ccc12 [[6-(1,3-dimethyl(1H-indazol-6-yl))-2-morpholin-4-ylpyrimidin-4-yl][4-(1-methylimidazol-2-yl)phenyl]amine]	> 6.30	
Cn1cnc2ccc(-c3cc(Nc4ccc(C#N)cc4)nc(N4CCOCC4)n3)cc21 [4-{[6-(1-methylbenzimidazol-6-yl)-2-morpholin-4-ylpyrimidin-4-yl]amino}benzenecarbonitrile]	5.30 to 6.00	
Cc1nn(C)c2cc(-c3cc(Nc4cc(Cl)c5ccn(C)c5c4)nc(N4CCOCC4)n3)ccc12 [[6-(1,3-dimethyl(1H-indazol-6-yl))-2-morpholin-4-ylpyrimidin-4-yl](4-chloro-1-methylindol-6-yl)amine]	5.30 to 6.00	
CCNC(=O)c1ccc(Nc2cc(-c3ccc4ncn(C)c4c3)nc(N3CCOCC3)n2)cc1 [N-ethyl(4-{[6-(1-methylbenzimidazol-6-yl)-2-morpholin-4-ylpyrimidin-4-yl]amino}phenyl)carboxamide]	5.30 to 6.00	
CNC(=O)c1ccc(Nc2cc(-c3ccc4ncn(C5CC5)c4c3)nc(N3CCOCC3)n2)cc1 [(4-{[6-(1-cyclopropylbenzimidazol-6-yl)-2-morpholin-4-ylpyrimidin-4-yl]amino}phenyl)-N-methylcarboxamide]	> 6.30	
Cn1ncc2ccc(-c3cc(Nc4ccc(-c5ncc(C(F)(F)F)[nH]5)cc4)nc(N4CCOCC4)n3)cc21 [[6-(1-methyl(1H-indazol-6-yl))-2-morpholin-4-ylpyrimidin-4-yl]{4-[5-(trifluoromethyl)imidazol-2-yl]phenyl}amine]	6.00 to 6.30	
Cn1ccc2ccc(Nc3cc(-c4ccc5c(CCCN)nn(C)c5c4)nc(N4CCOCC4)n3)cc21 [{6-[3-(3-aminopropyl)-1-methyl(1H-indazol-6-yl)]-2-morpholin-4-ylpyrimidin-4-yl}(1-methylindol-6-yl)amine]	> 6.30	
Cn1cnc2cc(Nc3cc(-c4ccc5cnn(C)c5c4)nc(N4CCOCC4)n3)ccc21 [[6-(1-methyl(1H-indazol-6-yl))-2-morpholin-4-ylpyrimidin-4-yl](1-methylbenzimidazol-5-yl)amine]	5.30 to 6.00	
Cn1cnc2ccc(-c3cc(Nc4ccc(C(=O)NCC5CC5)cc4)nc(N4CCOCC4)n3)cc21 [N-(cyclopropylmethyl)(4-{[6-(1-methylbenzimidazol-6-yl)-2-morpholin-4-ylpyrimidin-4-yl]amino}phenyl)carboxamide]	6.00 to 6.30	
Clc1ccc(Nc2cc(-c3ccc4cnn(C5CCC5)c4c3)nc(N3CCOCC3)n2)cc1 [(4-chlorophenyl)[6-(1-cyclobutyl(1H-indazol-6-yl))-2-morpholin-4-ylpyrimidin-4-yl]amine]	5.30 to 6.00	
Cn1ncc2ncc(-c3cc(Nc4ccc(-c5nnc[nH]5)cc4)nc(N4CCOCC4)n3)cc21 [(4-(4H-1,2,4-triazol-3-yl)phenyl)[6-(1-methylpyrazolo[4,5-b]pyridin-6-yl)-2-morpholin-4-ylpyrimidin-4-yl]amine]	> 6.30	
Cc1nn(C)c2cc(-c3cc(Nc4ccc5cn(C)nc5c4)nc(N4CCOCC4)n3)ccc12 [[6-(1,3-dimethyl(1H-indazol-6-yl))-2-morpholin-4-ylpyrimidin-4-yl](2-methyl(2H-indazol-6-yl))amine]	5.30 to 6.00	
CNC(=O)c1ccc(Nc2cc(-c3ccc4c(c3)ncn4CCCN3CCCC3)nc(N3CCOCC3)n2)cc1 [N-methyl[4-({2-morpholin-4-yl-6-[1-(3-pyrrolidinylpropyl)benzimidazol-5-yl]pyrimidin-4-yl}amino)phenyl]carboxamide]	6.00 to 6.30	
Cc1nn(C)c2cc(-c3cc(Nc4ccc(Cl)cc4)nc(N4CCOCC4)n3)cnc12 [[6-(1,3-dimethylpyrazolo[4,5-b]pyridin-6-yl)-2-morpholin-4-ylpyrimidin-4-yl](4-chlorophenyl)amine]	6.00 to 6.30	
CC(=O)Nc1ccc(Nc2cc(-c3ccc4ncn(C)c4c3)nc(N3CCOCC3)n2)cc1 [N-(4-{[6-(1-methylbenzimidazol-6-yl)-2-morpholin-4-ylpyrimidin-4-yl]amino}phenyl)acetamide]	6.00 to 6.30	
Cn1nc(CCN2CCOCC2)c2ccc(-c3cc(Nc4ccc(-c5ccn[nH]5)cc4)nc(N4CCOCC4)n3)cc21 [{6-[1-methyl-3-(2-morpholin-4-ylethyl)(1H-indazol-6-yl)]-2-morpholin-4-ylpyrimidin-4-yl}(4-pyrazol-5-ylphenyl)amine]	> 6.30	
Cn1ncc2ccc(-c3cc(Nc4ccc(C#N)cc4)nc(N4CCOCC4)n3)cc21 [4-{[6-(1-methyl(1H-indazol-6-yl))-2-morpholin-4-ylpyrimidin-4-yl]amino}benzenecarbonitrile]	5.30 to 6.00	
CCNC(=O)c1ccc(Nc2cc(-c3ccc4cnn(C)c4c3)nc(N3CCOCC3)n2)cc1 [N-ethyl(4-{[6-(1-methyl(1H-indazol-6-yl))-2-morpholin-4-ylpyrimidin-4-yl]amino}phenyl)carboxamide]	6.00 to 6.30	
CNC(=O)c1ccc(Nc2cc(-c3ccc4cnn(C)c4c3)nc(N3CCOCC3)n2)cn1 [N-methyl(5-{[6-(1-methyl(1H-indazol-6-yl))-2-morpholin-4-ylpyrimidin-4-yl]amino}(2-pyridyl))carboxamide]	6.00 to 6.30	
CNC(=O)c1ccc(Nc2cc(-c3ccc4ncn(CC5CC5)c4c3)nc(N3CCOCC3)n2)cc1 [[4-({6-[1-(cyclopropylmethyl)benzimidazol-6-yl]-2-morpholin-4-ylpyrimidin-4-yl}amino)phenyl]-N-methylcarboxamide]	> 6.30	
Clc1ccc(Nc2cc(-c3ccc4c(cnn4CCN4CCOCC4)c3)nc(N3CCOCC3)n2)cc1 [(4-chlorophenyl){2-morpholin-4-yl-6-[1-(2-morpholin-4-ylethyl)(1H-indazol-5-yl)]pyrimidin-4-yl}amine]	5.30 to 6.00	
CNC(=O)c1ccc(Nc2cc(-c3ccc4cnn(CCN(C)C)c4c3)nc(N3CCOCC3)n2)cc1 [{4-[(6-{1-[2-(dimethylamino)ethyl](1H-indazol-6-yl)}-2-morpholin-4-ylpyrimidin-4-yl)amino]phenyl}-N-methylcarboxamide]	6.00 to 6.30	
Clc1ccc(Nc2cc(-c3ccc4c(cnn4CCCN4CCOCC4)c3)nc(N3CCOCC3)n2)cc1 [(4-chlorophenyl){2-morpholin-4-yl-6-[1-(3-morpholin-4-ylpropyl)(1H-indazol-5-yl)]pyrimidin-4-yl}amine]	5.30 to 6.00	
Cn1nc(N2CCCC2)c2ccc(-c3cc(Nc4ccc(Cl)cc4)nc(N4CCOCC4)n3)cc21 [(4-chlorophenyl)[6-(1-methyl-3-pyrrolidinyl(1H-indazol-6-yl))-2-morpholin-4-ylpyrimidin-4-yl]amine]		5.30 to 6.00
Cn1nc(CCN2CCCC2)c2ccc(-c3cc(Nc4ccc(Cl)cc4)nc(N4CCOCC4)n3)cc21 [(4-chlorophenyl){6-[1-methyl-3-(2-pyrrolidinylethyl)(1H-indazol-6-yl)]-2-morpholin-4-ylpyrimidin-4-yl}amine]	6.00 to 6.30	
